Experimental findings from patent US20080214551A1, “Treatment of Burns” (AQ+ PLC, priority 2004, published 2008) are described below.

`Oc1cccc2cccnc12` [8-hydroxyquinoline]: the “solubility in aqueous solution” value is given as “generally insoluble or only poorly soluble”.
